Measured values reported in ChEMBL document CHEMBL5528082 (J Med Chem, 2024).
Values after ≈ are worked out from the molar mass of the structure shown. Active and inactive are the calls of the source. The calls are words filed in the database; no cut-off is given here.

Columns and labels:
Staphylococcus aureus [1] = assay: Antibacterial activity against Staphylococcus aureus ATCC 25923 incubated for 24 hrs by CLSI based broth microdilution assay; format: functional
Staphylococcus aureus [2] = assay: Antibacterial activity against Staphylococcus aureus USA 300 incubated for 24 hrs by CLSI based broth microdilution assay; format: functional
Staphylococcus aureus [3] = assay: Antibacterial activity against TMP-resistant Staphylococcus aureus BHKS 721 incubated for 24 hrs by CLSI based broth microdilution assay; format: functional
Staphylococcus aureus [4] = assay: Antibacterial activity against TMP-resistant Staphylococcus aureus BHKS 723 incubated for 24 hrs by CLSI based broth microdilution assay; format: functional
[5] = Cytotoxicity against HEK293 cells assessed as inhibition rate of cell growth at 100 uM incubated for 24 hrs by CCK8 assay relative to control; format: toxicity, cell-based; settings: human
[6] = Cytotoxicity against human NCM460 cells assessed as inhibition rate of cell growth at 100 uM incubated for 24 hrs by CCK8 assay relative to control; format: toxicity, cell-based
Dihydrofolate reductase [7] = molecular target: T1, Dihydrofolate reductase (Staphylococcus aureus, UniProt P0A017); assay: Inhibition of Staphylococcus aureus DHFR expressed in Escherichia coli BL21 (DE3) using DHF as substrate preincubated for 10 mins followed by substrate addition measured for 10 mins in presence of NADPH by spectrophotometry
T1 sequence (P0A017 whole entry): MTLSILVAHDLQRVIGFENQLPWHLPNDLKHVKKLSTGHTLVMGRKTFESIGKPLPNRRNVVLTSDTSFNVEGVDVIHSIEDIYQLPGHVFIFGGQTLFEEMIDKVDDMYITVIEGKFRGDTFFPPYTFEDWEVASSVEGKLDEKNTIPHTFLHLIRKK

Staphylococcus aureus [8] = assay: Bactericidal activity against Staphylococcus aureus ATCC 25923 assessed as bacterial growth suppression measured for 24 hrs by time kill assay; format: functional, organism-based
[9] = Acute toxicity in C57 mouse assessed as animal death at 800 mg/kg, po measured after 1 week; format: organism-based; settings: in vivo, 168 h, time 1 weeks
[10] = Acute toxicity in C57 mouse assessed as body weight loss at 400 to 800 mg/kg, po measured for 2 days; format: organism-based; settings: in vivo, 48 h, dose 400-800 mg/kg, time 2 day
[11] = Acute toxicity in C57 mouse assessed as body weight loss at 400 to 800 mg/kg, po measured for 4 days; format: organism-based; settings: in vivo, 96 h, dose 400-800 mg/kg, time 4 day
[12] = Acute toxicity in C57 mouse assessed as liver inflammation at 800 mg/kg, po measured after 1 week by biochemical analysis; format: organism-based; settings: in vivo, 168 h, time 1 weeks
[13] = Acute toxicity in C57 mouse assessed as damage in liver at 800 mg/kg, po measured after 1 week by H and E staining based analysis; format: organism-based; settings: in vivo, 168 h, time 1 weeks
[14] = Acute toxicity in C57 mouse assessed as damage in kidney at 800 mg/kg, po measured after 1 week by H and E staining based analysis; format: organism-based; settings: in vivo, 168 h, time 1 weeks
[15] = Acute toxicity in C57 mouse assessed as damage in lung at 800 mg/kg, po measured after 1 week by H and E staining based analysis; format: organism-based; settings: in vivo, 168 h, time 1 weeks
[16] = Metabolic stability in human liver microsomes assessed as half life at 3 uM measured for 120 mins by LC-MS/MS analysis; format: ADME, Microsome; settings: 2 h
[17] = Metabolic stability in human liver microsomes assessed as clearance rate at 3 uM measured for 120 mins by LC-MS/MS analysis; format: ADME, Microsome; settings: 2 h
[18] = Metabolic stability in mouse liver microsomes assessed as half life at 3 uM measured for 120 mins by LC-MS/MS analysis; format: ADME, Microsome; settings: 2 h
[19] = Cmax in Sprague-Dawley rat at 5 mg/kg, iv measured for 24 hrs by LC/MS analysis; format: ADME, organism-based; settings: in vivo
[20] = Tmax in Sprague-Dawley rat at 5 mg/kg, iv measured for 24 hrs by LC/MS analysis; format: ADME, organism-based; settings: in vivo
[21] = AUC (0 to t) in Sprague-Dawley rat at 5 mg/kg, iv measured for 24 hrs by LC/MS analysis; format: ADME, organism-based; settings: in vivo
[22] = Cmax in Sprague-Dawley rat at 15 mg/kg, po measured for 24 hrs by LC/MS analysis; format: ADME, organism-based; settings: in vivo
[23] = Tmax in Sprague-Dawley rat at 15 mg/kg, po measured for 24 hrs by LC/MS analysis; format: ADME, organism-based; settings: in vivo
[24] = Oral bioavailability in Sprague-Dawley rat at 15 mg/kg measured for 24 hrs by LC/MS analysis; format: ADME, organism-based; settings: in vivo
Staphylococcus aureus [25] = assay: Antibacterial activity against methicillin-resistant Staphylococcus aureus ATCC 33591 infected in C57 mouse model assessed as body weight recovery at 2 to 10 mg/kg administered once a day for 3 days consecutively and measured after 24 hrs post-last dose; format: functional, organism-based; settings: dose 2-10 mg/kg, time 4.0 day
Staphylococcus aureus [26] = assay: Antibacterial activity against methicillin-resistant Staphylococcus aureus ATCC 33591 infected in C57 mouse model assessed as wound healing at 2 to 10 mg/kg administered once a day for 3 days consecutively and measured after 24 hrs post-last dose; format: functional, organism-based; settings: dose 2-10 mg/kg, time 4.0 day
Staphylococcus aureus [27] = assay: Antibacterial activity against methicillin-resistant Staphylococcus aureus ATCC 33591 infected in C57 mouse model assessed as decrease in skin abscess at 2 to 10 mg/kg administered once a day for 3 days consecutively and measured after 24 hrs post-last dose; format: functional, organism-based; settings: dose 2-10 mg/kg, time 4.0 day
Staphylococcus aureus [28] = assay: Antibacterial activity against methicillin-resistant Staphylococcus aureus ATCC 33591 infected in C57 mouse model assessed as reduction in bacterial count at 2 to 10 mg/kg administered once a day for 3 days consecutively and measured after 24 hrs post-last dose by colony counting method; format: functional, organism-based; settings: dose 2-10 mg/kg, time 4.0 day
Staphylococcus aureus [29] = assay: Antibacterial activity against methicillin-resistant Staphylococcus aureus ATCC 33591 infected in C57 mouse model assessed as decrease in pathological change at 2 to 10 mg/kg administered once a day for 3 days consecutively and measured after 24 hrs post-last dose by H and E staining based analysis; format: functional, organism-based; settings: dose 2-10 mg/kg, time 4.0 day
Dihydrofolate reductase [30] = molecular target: T1, Dihydrofolate reductase; assay: Binding affinity to Staphylococcus aureus DHFR expressed in Escherichia coli BL21 (DE3) assessed dissociation constant by ITC analysis
Staphylococcus aureus [31] = assay: Synergistic antibacterial activity against Staphylococcus aureus ATCC 25923 assessed as fractional inhibitory concentration index incubated for 24 hrs in presence of SMX by CLSI based broth microdilution assay; format: functional
Staphylococcus aureus [32] = assay: Synergistic antibacterial activity against Staphylococcus aureus USA 300 assessed as fractional inhibitory concentration index incubated for 24 hrs in presence of SMX by CLSI based broth microdilution assay; format: functional
Staphylococcus aureus [33] = assay: Synergistic antibacterial activity against TMP-resistant Staphylococcus aureus BHKS 227 assessed as fractional inhibitory concentration index incubated for 24 hrs in presence of SMX by CLSI based broth microdilution assay; format: functional
Staphylococcus aureus [34] = assay: Synergistic antibacterial activity against TMP-resistant Staphylococcus aureus BHKS 721 assessed as fractional inhibitory concentration index incubated for 24 hrs in presence of SMX by CLSI based broth microdilution assay; format: functional
Staphylococcus aureus [35] = assay: Synergistic antibacterial activity against TMP-resistant Staphylococcus aureus BHKS 723 assessed as fractional inhibitory concentration index incubated for 24 hrs in presence of SMX by CLSI based broth microdilution assay; format: functional
Staphylococcus aureus [36] = assay: Synergistic antibacterial activity against TMP-resistant Staphylococcus aureus BHKS 231 assessed as fractional inhibitory concentration index incubated for 24 hrs in presence of SMX by CLSI based broth microdilution assay; format: functional
Staphylococcus aureus [37] = assay: Antibacterial activity against TMP-resistant Staphylococcus aureus BHKS 231 incubated for 24 hrs by CLSI based broth microdilution assay; format: functional
[38] = molecular target: Dihydrofolate reductase (Staphylococcus aureus) (UniProt P0A017); settings: dose 10.0 µM, time 10.0 min
Chain of Dihydrofolate reductase (Staphylococcus aureus) (P0A017 2-159 limits assumed): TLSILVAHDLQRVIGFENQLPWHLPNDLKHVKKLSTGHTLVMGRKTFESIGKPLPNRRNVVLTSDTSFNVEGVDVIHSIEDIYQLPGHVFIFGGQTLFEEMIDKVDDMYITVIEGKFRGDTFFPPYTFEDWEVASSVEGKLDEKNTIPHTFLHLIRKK

SMILES: CC(C)c1cc(OCC2CC2)c(I)cc1Oc1cnc(N)nc1N
- MIC (Staphylococcus aureus [1]): 0.031 µg/mL (≈ 0.0704 µM)
- MIC (Staphylococcus aureus [2]): 0.031 µg/mL (≈ 0.0704 µM)
- MIC (Staphylococcus aureus [3]): 4 µg/mL (≈ 9.09 µM)
- MIC (Staphylococcus aureus [4]): 2 µg/mL (≈ 4.54 µM)
- inhibition at 24 h, 100 µM [5]: 59.1%
- inhibition at 24 h, 100 µM [6]: 20.2%
- IC50 (Dihydrofolate reductase [7]): 0.97 nM
- Activity (Staphylococcus aureus [8]): Dose-Dependent Effect
- Activity [9]: Non-Toxic
- Activity [10]: Toxic
- Activity [11]: Non-Toxic
- Activity [12]: Toxic
- Activity [13]: Non-Toxic
- Activity [14]: Non-Toxic
- Activity [15]: Non-Toxic
- t1/2 [16]: 146.1 min
- CLH [17]: 0.7 µL/min/mg
- t1/2 [18]: 26.2 min
- Cmax [19]: 4060 ng/mL
- Tmax [20]: 4.8 min
- AUC(0-t) at 24 h [21]: 3240 ng·h/mL
- Cmax [22]: 579 ng/mL
- Tmax [23]: 79.8 min
- bioavailability [24]: 40.7%
- Activity (Staphylococcus aureus [25]): Active
- Activity (Staphylococcus aureus [26]): Active
- Activity (Staphylococcus aureus [27]): Active
- Activity (Staphylococcus aureus [28]): Active
- Activity (Staphylococcus aureus [29]): Active
- Kd (Dihydrofolate reductase [30]): 1540 nM
- fractional inhibitory concentration index (FICI) (Staphylococcus aureus [31]): 0.066
- fractional inhibitory concentration index (FICI) (Staphylococcus aureus [32]): 0.022
- fractional inhibitory concentration index (FICI) (Staphylococcus aureus [33]): 0.27
- fractional inhibitory concentration index (FICI) (Staphylococcus aureus [34]): 0.375
- fractional inhibitory concentration index (FICI) (Staphylococcus aureus [35]): 0.156
- fractional inhibitory concentration index (FICI) (Staphylococcus aureus [36]): 1
- MIC (Staphylococcus aureus [37]): 32 µg/mL (≈ 72.7 µM)
- ΔTm [38]: 18 °C
